From patent publication US20200190592A1, “PME-1 AS A BIOMARKER TO PREDICT AND DIAGNOSE AN INCREASED RISK OF ENDOMETRIAL CANCER AND GENE SILENCING OF PME-1 TO INHIBIT EPITHELIAL TO MESENCHYMAL TRANSITION” (Medical Diagnostic Laboratories, L.L.C., priority 2018, published 2020) come the findings set out here.

“Also recorded” adds a separate entry of the source.

Holding throughout (type): cell-based, human
One series deals with PME-1. Description: Western blot of PME-1 protein in RL95-2 cells. The conditions noted are these: GAPDH loading control, listed as shRNA #2. The text has this:
We prepared RL95-2 cell lines expressing empty vector (control), over-expressing PME-1 (+PME-1), or expressing shRNA against PPME1, the gene that codes for PME-1 protein (−PME-1). Using these cells, we confirmed the appropriate level of PME-1 via real-time RT-PCR (data not shown) and Western blot analysis (FIG. 8). GAPDH was used as a loading control.
We also prepared two different shRNAs targeted against PME-1.
Lentivirus was produced in HEK293T cell lines with pLKO shRN vectors (Thermo Scientific, cat. no. RHS4533; Waltham, Mass.) and pCDH-CuO-GFP-Puro vectors (System Biosciences, Inc., cat. no. QM513B-1; Mountain View, Calif.) with pPACKH1 packaging plasmid (System Biosciences, Inc., cat, no. LV050A-1). shRNA sequences are in the Table 2. Lentivirus was collected and concentrated with Peg-IT concentrating solution (System Biosciences, Inc.). 5×10^6 ifu/ml lentivirus was added to cell cultures with growth media and 8 μg/ml PolyBrene (Sigma Aldrich). Media was changed to full growth media after 24 hrs and to selection media containing antibiotic after 48 hrs (5 μg/ml puromycin) (Invivogen) for 10 days.
15 μg of protein was used for western analysis. […]

The subject of another series is ECC-1 cells. In words: Foci formation analysis in ECC-1 cells. The conditions noted are these: 10 days. As for the experimental part: We performed a foci formation analysis by transfecting (i) empty FLAG vector, (ii) FLAG-PPP2CA, (iii) FLAG-PPP4C, or (iv) FLAG-PPP6C into ECC-1 cells that stably expressed either (i) shSCR (non-targeting shRNA, black bars) or (ii) shPPME1 (depletes PME-1 levels, white bars) (FIG. 24).
1,000 cells were plated in a six well tissue culture dish in selection media (to include 5 μg/ml puromycin) (InvivoGen). Cells were allowed to adhere and grow in a 5% CO2, 37° C. incubator for 10 to 14 days. Media was replaced every fourth day. Cells were stained with 1% crystal violet (Sigma Aldrich) for five minutes and rinsed with PBS. Colonies were counted and data is presented as the percentage of change compared to the control. All Experiments were repeated at least three times.

For the next series, the system named is phospho-ERK. In words: Western analysis of phospho-ERK in RL95-2 cells. The conditions noted are these: compared to control cells; total ERK as reference. As for the experimental part:
When PME-1 was depleted with shRNA, there was a decrease in phospho-ERK compared to control cells.
15 μg of protein was used for western analysis. PME-1 antibody (Santa Cruz) and COXIV (Cell Signaling Technologies) were used for detection of proteins and the blots were developed using chemiluminescence (Pierce ECL Western Blotting Substrate—Thermo Scientific) on the GE ImageQuant LAS 4000. For analysis of Akt, ERK, and β-catenin signaling in tissue culture, western analyses were completed as follows. RL95-2 cells stably infected with lentivirus expressing constructs were selected with puromycin (Invivogen). The cells were incubated with either 50 μM Akt inhibitor (LY 294002, Cell Signaling Technologies) or 40 μM ERK inhibitor (V0126, Cell Signaling Technologies) for 1-2 hours at 37° C. 1.5× Laemelli buffer (0.5 M Tris pH6.8, […], 10% sodium dodecyl sulfate, 100 mM EDTA) was used to prepare cell lysates. 20 μg of protein was used for western analysis. Primary antibodies used were: P-Akt (Ser473), P-Akt (Thr308), pan-Akt, P-ERK (Thr202/204), total ERK (Cell Signaling Technologies), PME-1 (Santa Cruz), phospho-β-catenin (Ser45, Cell Signaling Technologies), phospho-β-catenin (Ser33/37/Thr41, Cell Signaling Technologies), β-catenin (Abcam), DcR2 (Abcam), and GAPDH (Abcam). All experiments were repeated several times with similar results.

The next series relates to WNT3 and WNT3A. In words: qRT-PCR of WNT3 and WNT3A expression in RL95-2 cells. The conditions noted are these: RL95-2, normalized to 18S. As for the experimental part: (§1) Using RL95-2 endometrial cancer cells, we overexpressed PME-1 (FIG. 21A) or depleted PME-1 with shRNA (FIG. 21B) and confirmed that PME-1 was appropriately expressed.
(§2) Total RNA was extracted with Qiagen RNAEasy kit from RL95-2 cells. cDNA was synthesized using 500 ng-1 μg of RNA and SuperScript VILO c-DNA mix (Life Technologies). Taqman probes and PCR-mix were purchased from Life Technologies. All samples were run in triplicates. Results are representative of three independent experiments in which genes of interest were normalized to the house-keeping gene, 18S or GAPDH, where fold-change was calculated using the ddCt method.

For a further series, the system named is PP2A. Description: PP2A phosphatase assay on RL95-2 whole cell extract. The conditions noted are these: RL95-2 cells, 500 μg whole cell extract, vs non-targeting control. The protocol:
Because PME-1 is a known inhibitor of PP2A, we confirmed in this study that depletion of PME-1 by siRNA led to an increase in PP2A activity in cells. To do so, we treated RL95-2 cells with either non-targeting siRNA (Control) or siRNA against PPME1. PP2A activity was monitored using a phosphatase assay (R&D Systems Duo IC Set phosphatase assay kit). In the phosphatase assay, we used 500 μg of whole cell extract and followed the manufacturer's recommendations.
Whole cell lysates were used with the DuoSet IC PP2A Phosphatase Assay Kit (R&D Systems). Procedure was carried out as per kit instructions with 500 μg protein and the absorbance was measured at 620 nm. The assay was repeated twice with similar results.

Another series concerns SFRP1. In words: qRT-PCR of SFRP1 expression in RL95-2 cells. The conditions noted are these: RL95-2, normalized to 18S. The protocol:
as §1, §2
Background: Quantitative PCR measures a nucleic acid by following its amplification.

The test system of a further series is β-catenin. Description: Western analysis of β-catenin in RL95-2 cells. The text has this: We performed Western blot analysis in RL95-2 cells that were expressing empty vector (Control), over-expressing PME-1 (+PME-1) or expressing shRNA against PME-1 (−PME-1) to examine the protein stability of β-catenin (FIG. 19A). We observed a decrease in total β-catenin protein in cells that were over-expressing PME-1. This observation is correlated with the predicted ubiquitylation of β-catenin and its degradation. Conversely, a depletion of PME-1 led to stabilization of total β-catenin (FIG. 19A).
In another series of study, we performed a similar assay in which cells were treated with 10 μM MG-132 prior to protein extraction. MG-132 is a proteasome inhibitor and therefore allows for the accumulation of phosphorylated β-catenin, which is normally quickly degraded, to be detected by western analysis.
15 μg of protein was used for western analysis. PME-1 antibody (Santa Cruz) and COXIV (Cell Signaling Technologies) were used for detection of proteins and the blots were developed using chemiluminescence (Pierce ECL Western Blotting Substrate—Thermo Scientific) on the GE ImageQuant LAS 4000. For analysis of Akt, ERK, and β-catenin signaling in tissue culture, western analyses were completed as follows. RL95-2 cells stably infected with lentivirus expressing constructs were selected with puromycin (Invivogen). […]

For the substance “shPPME1 no. 2: shRNA targeting PPME1, SEQ ID NO: 2: GCAGCGATTATTAGTAGAGTT, bp 289-309; used for all subsequent experiments (guide GCAGCGATTATTAGTAGAGTT; listed as Homo sapiens)”, the “PME-1 levels via Western blot analysis” value in the series with PME-1 is “significantly decreased; also recorded: best depletion”. Besides, the foci formation entry with ECC-1 cells (ECC-1, empty FLAG vector, vs shSCR control) is recorded as “significant decrease”; with ECC-1 cells (ECC-1 transfected with PP2A, PP4 or PP6, vs shSCR) it was “significant decrease”. In the series with phospho-ERK, the phospho-ERK entry is listed as “decrease”. Moreover, in the series on WNT3 and WNT3A, the “WNT3 and WNT3A expression” value is on record as “significantly decreased”. Moreover, the “increase in PP2A activity” value with PP2A turned out to be 30 fold. The figures for the SFRP1 expression result with SFRP1 and with SFRP1 (listed as shRNA (SEQ ID NO: 2)) were “significantly increased” and “significant increase”, respectively. In the series on β-catenin (absence of MG-132), the “total β-catenin” value is “stabilization”. Also, in the series on β-catenin (cells treated with 10 μM MG-132, compared to control cells), the “phosphorylated β-catenin” value is “did not lead to an increase”.
